Source: ChEMBL document CHEMBL1121889, “Preparation and analgesic properties of amino acid derivatives of (-)-5,9 alpha-diethyl-2'-hydroxybenzomorphan” (J Med Chem, 1981)

Columns and labels:
Type in all cases: protein assay
Opioid receptor [1] = molecular target: T1, Opioid receptor (Rattus norvegicus, UniProt P33533+P34975+P33535); experiment: Compound was tested for its ability to displace [3H]naloxone from Opioid receptors in absence of NaCl
Opioid receptor [2] = molecular target: T1, Opioid receptor; experiment: Compound was tested for its ability to displace [3H]naloxone from Opioid receptors in presence of NaCl (100 mM)
Opioid receptor [3] = molecular target: T1, Opioid receptor; experiment: Compound was tested for its ability to displace [3H]- naloxone] from Opioid receptors in presence of NaCl (100 mM)
Opioid receptor [4] = molecular target: T1, Opioid receptor; experiment: Compound was tested for its ability to displace [3H]- naloxone] from Opioid receptors in absence of NaCl

Question: Which results are given for CCC1C2Cc3ccc(O)cc3C1(CC)CCN2C(=O)C(N)CCSC.Cl (centres undefined)?
Answer: IC50 (Opioid receptor [1]): 301 nM; IC50 (Opioid receptor [2]): 5.586 µM

Question: What does the source list for CCC1C2Cc3ccc(O)cc3C1(CC)CCN2C(=O)C(N)Cc1ccccc1.Cl (stereo in doubt; 2d)?
Answer: IC50 (Opioid receptor [1]): 1540 nM; IC50 (Opioid receptor [2]): 3.35 µM

Question: CCC1C2Cc3ccc(O)cc3C1(CC)CCN2C(=O)C(N)Cc1ccccc1.Cl (stereo in doubt; 2e) was tested. Which IC50 (Opioid receptor [1]) did it give?
Answer: > 10000 nM

Question: And the IC50 (Opioid receptor [2])?
Answer: > 10 µM

Question: What does the source list for CCC1C2Cc3ccc(O)cc3C1(CC)CCN2C(=O)CN.Cl (centres undefined)?
Answer: IC50 (Opioid receptor [1]): 287 nM; IC50 (Opioid receptor [2]): 8.184 µM

Question: Which results are given for CC[C@H]1[C@H]2Cc3ccc(O)cc3[C@]1(CC)CCN2?
Answer: IC50 (Opioid receptor [3]): 360 nM; IC50 (Opioid receptor [4]): 20 nM

Question: For CCC1C2Cc3ccc(O)cc3C1(CC)CCN2C(=O)C(N)CCCN=C(N)N.Cl (centres undefined), which IC50 (Opioid receptor [1]) is on record?
Answer: 15.5 nM

Question: What about the IC50 (Opioid receptor [2]) of the same compound?
Answer: 0.66 µM

Question: Which results are given for CCC1C2Cc3ccc(O)cc3C1(CC)CCN2C(=O)C(N)CC(C)C (centres undefined)?
Answer: IC50 (Opioid receptor [1]): 1503 nM; IC50 (Opioid receptor [2]): 6.384 µM
